# Experimental data reported in publication PMC11676667, “Pharmacokinetics of Oral Cannabinoid Δ8-Tetrahydrocannabivarin and Its Main Metabolites in Healthy Participants” (Pharmaceuticals, 2024).
# Where two headings read alike, the source gives them in different places.
# Assay: Plasma pharmacokinetics after single oral dose of Δ8-THCV in MCT oil (LC-MS/MS, non-compartmental analysis)
# Type: in vivo, human
# Details: for concentration at 0.5 h / concentration at 1 h / concentration at 2 h / concentration at 4 h / concentration at 6 h / concentration at 8 h / Tmax / AUC(0-t) / Cmax / MRT: human, plasma; for Tmax: read-out: tmax; for MRT: read-out: MRT (mean residence time)
# In short: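 Healthy participants received single oral Δ8-THCV in MCT oil (50 mg/mL; 12.5-200 mg, or placebo) after a high-fat, high-calorie breakfast, with ≥1-week washout. Plasma (K2EDTA) sampled predose and 0.5-8 h post-dose, assayed by validated LC-MS/MS including metabolites; PK by non-compartmental analysis, sub-LLOQ values set to 0.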
# [1] = oral, 100 mg, 100 mg Δ8-THCV dose, Mean (SD, %CV)
# [2] = oral, 100 mg, 100 mg Δ8-THCV dose, Median (IQ Range)
# [3] = oral, 200 mg, 200 mg Δ8-THCV dose, Mean (SD, %CV)
# [4] = oral, 200 mg, 200 mg Δ8-THCV dose, Median (IQ Range)
# [5] = po, 12.5 mg, 12.5 mg single oral Δ8-THCV in MCT oil, Mean (±SD)
# [6] = po, 12.5 mg, 12.5 mg single oral Δ8-THCV in MCT oil, Median (Range)
# [7] = po, 25 mg, 25 mg single oral Δ8-THCV in MCT oil, Mean (±SD)
# [8] = po, 25 mg, 25 mg single oral Δ8-THCV in MCT oil, Median (Range)
# [9] = po, 50 mg, 50 mg single oral Δ8-THCV in MCT oil, Mean (±SD)
# [10] = po, 50 mg, 50 mg single oral Δ8-THCV in MCT oil, Median (Range)
# [11] = po, 100 mg, 100 mg single oral Δ8-THCV in MCT oil, Mean (±SD)
# [12] = po, 100 mg, 100 mg single oral Δ8-THCV in MCT oil, Median (Range)
# [13] = po, 200 mg, 200 mg single oral Δ8-THCV in MCT oil, Mean (±SD)
# [14] = po, 200 mg, 200 mg single oral Δ8-THCV in MCT oil, Median (Range)
smiles,measurement,setting,value
"CCCc1cc(O)c2c(c1)OC(C)(C)[C@@H]1CCC(C(=O)O)=C[C@@H]21 [Δ9-THCV-COOH, 11-nor-9-carboxy-Δ9-THCV]",concentration at 0.5 h,[1],0.3 ng/mL
same,concentration at 0.5 h,[2],0 ng/mL
same,concentration at 1 h,[1],5.8 ng/mL
same,concentration at 1 h,[2],1.9 ng/mL
same,concentration at 2 h,[1],9.2 ng/mL
same,concentration at 2 h,[2],8.7 ng/mL
same,concentration at 4 h,[1],16.1 ng/mL
same,concentration at 4 h,[2],16 ng/mL
same,concentration at 6 h,[1],15.6 ng/mL
same,concentration at 6 h,[2],17.5 ng/mL
same,concentration at 8 h,[1],10.8 ng/mL
same,concentration at 8 h,[2],10.5 ng/mL
same,concentration at 0.5 h,[3],0.1 ng/mL
same,concentration at 0.5 h,[4],0 ng/mL
same,concentration at 1 h,[3],4.9 ng/mL
same,concentration at 1 h,[4],2.7 ng/mL
same,concentration at 2 h,[3],19.1 ng/mL
same,concentration at 2 h,[4],9.4 ng/mL
same,concentration at 4 h,[3],37.1 ng/mL
same,concentration at 4 h,[4],40 ng/mL
same,concentration at 6 h,[3],32.3 ng/mL
same,concentration at 6 h,[4],28.5 ng/mL
same,concentration at 8 h,[3],29.2 ng/mL
same,concentration at 8 h,[4],26.3 ng/mL
same,Tmax,"oral, present study, MCT oil formulation, as compared in discussion",5 h
same,AUC(0-t),[5],7.9 ng·h/mL
same,Cmax,[5],2.7 ng/mL
same,AUC(0-t),[6],5.6 ng·h/mL
same,Cmax,[6],2.8 ng/mL
same,MRT,[5],5.1 h
same,Tmax,[5],5.1 h
same,MRT,[6],5.3 h
same,Tmax,[6],4 h
same,AUC(0-t),[7],18.3 ng·h/mL
same,Cmax,[7],4.2 ng/mL
same,AUC(0-t),[8],19.6 ng·h/mL
same,Cmax,[8],4.4 ng/mL
same,MRT,[7],4.8 h
same,Tmax,[7],4.6 h
same,MRT,[8],4.6 h
same,Tmax,[8],4 h
same,AUC(0-t),[9],33.4 ng·h/mL
same,Cmax,[9],8.8 ng/mL
same,AUC(0-t),[10],30.8 ng·h/mL
same,Cmax,[10],7.7 ng/mL
same,MRT,[9],5.5 h
same,Tmax,[9],5.1 h
same,MRT,[10],5.5 h
same,Tmax,[10],6 h
same,AUC(0-t),[11],92.5 ng·h/mL
same,Cmax,[11],22.5 ng/mL
same,AUC(0-t),[12],86.5 ng·h/mL
same,Cmax,[12],20.6 ng/mL
same,MRT,[11],4.9 h
same,Tmax,[11],4.5 h
same,MRT,[12],4.6 h
same,Tmax,[12],4 h
same,AUC(0-t),[13],201 ng·h/mL
same,Cmax,[13],50.3 ng/mL
same,AUC(0-t),[14],190 ng·h/mL
same,Cmax,[14],48.2 ng/mL
same,MRT,[13],5.1 h
same,Tmax,[13],5.3 h
same,MRT,[14],5.2 h
same,Tmax,[14],6 h
same,number of positive plasma samples,of 504 plasma samples from 15 participants after oral Δ8-THCV,260
same,concentration in representative plasma sample,"one subject after oral Δ8-THCV in MCT oil, Figure A1",33.2 ng/mL
